Source: patent US7135466B2 (Kirin Beer Kabushiki Kaisha, priority 1999, dated 2006)
Where two headings read alike, the source gives them in different places.

Biological target: T1, PDGF-Ra (Homo sapiens, UniProt P16234)
T1 construct: host or cells: G-292 human osteosarcoma cells
Assay: Inhibitory activity against PDGF-Ra phosphorylation by PDGF-AA stimulation using G292
Assay type: cell-based
Conditions: for IC50: > means inhibition at indicated concentration not more than 50%, < and << not less than 50%, read-out: PDGF (E) IC50; for inhibition at 0.1 µM: G292, read-out: PDGF (E) inhibition (%) at 100 nM
Protocol: Measurement of Inhibitory Activity Against PDGF-Ra Phosphorylation by PDGF-AA Stimulation Using G292
G-292 human osteosarcoma cells (Dainippon Pharmaceutical Co. Ltd.) were cultured in a DMEM medium (Dainippon Pharmaceutical Co. Ltd.) containing 10% FBS within an incubator containing 5% carbon dioxide until 80% confluent, and the cells were planted at 3×10^4 cells per well in 96-well flat-bottom plates in the same medium containing 0.1% FBS. After cultivation at 37° C. overnight, a solution of a test compound in dimethyl sulfoxide was added to each well, and a reaction was allowed to proceed at 37° C. for one hr.
After the reaction of the test compound, PDGF-AA (Upstate) was added to 50 ng/ml, and the cells were stimulated at 37° C. for 5 min. Thereafter, the cells were solubilized and shaken at room temperature for 20 min.
This solubilized cell solution was transferred to a 96-well plate coated with aniti-phosphotyrosine antibody PY-20, and a reaction was allowed to proceed at 4° C. overnight. Anti-PDGF-Ra (c-20) (Santa Cruz) was added as a primary antibody, and a reaction was allowed to proceed for one hr. GAR (Anti-rabbit Ig, horseradish peroxidase, Amersham) was then added as a secondary antibody, and a reaction was allowed to proceed for one hr. Color development was carried out using a color development kit for peroxidase (Sumitomo Bakelite Co., Ltd.), and the absorbance was measured at 450 nm.

[1] = figure in parentheses in >100( ), at 100 nM
[2] = figure within parentheses in >100( ), at 100 nM

T1 sequence (P16234 24-1089): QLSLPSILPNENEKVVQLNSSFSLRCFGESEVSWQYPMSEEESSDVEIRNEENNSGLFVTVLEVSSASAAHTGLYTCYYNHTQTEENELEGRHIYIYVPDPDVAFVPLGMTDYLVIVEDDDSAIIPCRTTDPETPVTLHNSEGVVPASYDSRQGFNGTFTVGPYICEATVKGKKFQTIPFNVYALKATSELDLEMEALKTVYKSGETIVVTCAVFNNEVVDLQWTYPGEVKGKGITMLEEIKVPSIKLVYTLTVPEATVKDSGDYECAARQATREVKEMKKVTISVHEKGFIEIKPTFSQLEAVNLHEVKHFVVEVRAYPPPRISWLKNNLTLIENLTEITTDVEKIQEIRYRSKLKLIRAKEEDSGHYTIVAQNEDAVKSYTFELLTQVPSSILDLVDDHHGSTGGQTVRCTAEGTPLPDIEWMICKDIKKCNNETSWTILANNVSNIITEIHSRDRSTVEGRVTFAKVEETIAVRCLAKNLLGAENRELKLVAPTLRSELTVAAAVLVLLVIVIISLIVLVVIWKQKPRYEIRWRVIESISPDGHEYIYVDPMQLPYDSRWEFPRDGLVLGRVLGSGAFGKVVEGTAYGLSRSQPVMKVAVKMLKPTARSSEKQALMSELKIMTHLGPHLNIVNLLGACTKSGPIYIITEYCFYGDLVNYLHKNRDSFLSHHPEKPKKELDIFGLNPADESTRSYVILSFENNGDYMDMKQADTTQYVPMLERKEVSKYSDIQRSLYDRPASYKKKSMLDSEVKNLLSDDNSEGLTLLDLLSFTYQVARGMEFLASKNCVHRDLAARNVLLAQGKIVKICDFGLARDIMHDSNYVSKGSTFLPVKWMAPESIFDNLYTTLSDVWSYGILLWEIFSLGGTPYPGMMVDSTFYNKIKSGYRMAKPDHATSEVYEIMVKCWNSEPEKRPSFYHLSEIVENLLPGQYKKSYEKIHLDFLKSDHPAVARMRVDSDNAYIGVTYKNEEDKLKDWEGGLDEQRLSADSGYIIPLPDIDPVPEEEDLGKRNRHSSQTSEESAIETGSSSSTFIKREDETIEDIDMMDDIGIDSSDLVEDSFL

Compound	IC50	further results
COc1cc2nccc(Oc3cc(C)c(NC(=O)OCC4CC4)cc3C)c2cc1OC [Example 381, Cyclopropylmethyl N-{4-[(6,7-dimethoxy-4-quinolyl)oxy]-2,5-dimethylphenyl}carbamate]		IC50 (Pharmacological Test Example 1): 66 nM
COc1cc2ncnc(Oc3ccc(NC(=S)NC(=O)C(C)(C)C)cc3)c2cc1OC [Example 1188, N-{4-[(6,7-Dimethoxy-4-quinazolinyl)oxy]phenyl}-N′-(2,2-dimethylpropanoyl)thiourea]	76 nM	
COc1cc2nccc(Oc3cc(C)c(NC(=O)OCCOc4ccccc4F)cc3C)c2cc1OC [Example 205, 2-(2-Fluorophenoxy)ethyl N-{4-[(6,7-dimethoxy-4-quinolyl)oxy]-2,5-dimethylphenyl}carbamate]		IC50 (Pharmacological Test Example 1): 78 nM
COc1cc2nccc(Oc3cc(C)c(NC(=O)OCCN(C)C)cc3C)c2cc1OC [Example 190, 2-(Dimethylamino)ethyl N-{4-[(6,7-dimethoxy-4-quinolyl)oxy]-2,5-dimethylphenyl}carbamate]		IC50 (Pharmacological Test Example 1): > 100 nM
COc1cc2ncnc(Oc3ccc(NC(=O)OC(C)c4ccc(F)cc4)c(Cl)c3)c2cc1OC (centres unmarked) [Example 106, 1-(4-Fluorophenyl)ethyl N-{2-chloro-4-[(6,7-dimethoxy-4-quinazolinyl)oxy]phenyl}carbamate]		IC50 (Pharmacological Test Example 1): 12 nM
COc1cc2nccc(Oc3cc(C)c(NC(=O)Oc4ccc(C#N)cc4)cc3C)c2cc1OC [Example 460, 4-Cyanophenyl N-{4-[(6,7-dimethoxy-4-quinolyl)oxy]-2,5-dimethylphenyl}carbamate]	> 100 nM	inhibition at 0.1 µM [2]: 15%
COc1cc2nccc(Oc3ccc(NC(=O)OC4CCN(C)CC4)cc3)c2cc1OC [Example 466, 1-Methyl-4-piperidyl N-{4-[(6,7-dimethoxy-4-quinolyl)oxy]phenyl}carbamate]	> 100 nM	inhibition at 0.1 µM [2]: 16%
CCN(C(=O)OCc1ccccc1C)c1ccc(Oc2ncnc3cc(OC)c(OC)cc23)cc1Cl [Example 486, 2-Methylbenzyl N-{2-chloro-4-[(6,7-dimethoxy-4-quinazolinyl)oxy]phenyl}-N-ethylcarbamate]	> 100 nM	inhibition at 0.1 µM [2]: 36%
COc1cc2nccc(Oc3ccc(OCCCOc4c(C)cccc4C)cc3)c2cc1OC [Example 799, 4-{4-[3-(2,6-Dimethylphenoxy)propoxy]phenoxy}-6,7-dimethoxyquinoline]	14 nM	
COc1ccc(C(=O)NC(=S)Nc2ccc(Oc3ncnc4cc(OC)c(OC)cc34)cc2)cc1OC [Example 1203, N-(3,4-Dimethoxybenzoyl)-N′-{4-[(6,7-dimethoxy-4-quinazolinyl)oxy]phenyl}thiourea]	< 10 nM	
COc1cc2nccc(Oc3ccc(NC(=S)NN4CCCCC4)c(C)c3C)c2cc1OC [Example 521, N-{4-[(6,7-Dimethoxy-4-quinolyl)oxy]-2,3-dimethylphenyl}-N′-(1-piperidinyl)thiourea]	> 100 nM	
N-{4-[(6,7-Dimethoxy-4-quinazolinyl)oxy]phenyl}-N-ethyl-N′-(4-phenylbutanoyl)thiourea [Example 1140]	> 100 nM	PDGF (E) inhibition (%) at 100 nM [1]: 22%
COc1cc2nccc(Oc3ccc(NC(=O)Oc4ccc(C#N)cc4)c(C)c3C)c2cc1OC [Example 461, 4-Cyanophenyl N-{4-[(6,7-dimethoxy-4-quinolyl)oxy]-2,3-dimethylphenyl}carbamate]	60 nM	
COc1cc2nccc(Oc3cc(C)c(NC(=O)OC(C)c4cccc(OC(F)(F)F)c4)cc3C)c2cc1OC (centres unmarked) [Example 182, 1-[3-(Trifluoromethoxy)phenyl]ethyl N-{4-[(6,7-dimethoxy-4-quinolyl)oxy]-2,5-dimethylphenyl}carbamate]		IC50 (Pharmacological Test Example 1): > 100 nM
COc1cc2ncnc(Oc3ccc(NC(=S)NC(=O)c4cccc(F)c4)cc3)c2cc1OC [Example 1164, N-{4-[(6,7-Dimethoxy-4-quinazolinyl)oxy]phenyl}-N′-(3-fluorobenzoyl)thiourea]	< 10 nM	
COc1cc2ncnc(Oc3ccc(NC(=S)NC(=O)c4ccc(Br)cc4)cc3)c2cc1OC [Example 1168, N-(4-Bromobenzoyl)-N′-{4-[(6,7-dimethoxy-4-quinazolinyl)oxy]phenyl}thiourea]	< 10 nM	
COc1cc2nccc(Oc3ccc(NC(=S)NC(=O)N(CCCl)CCCl)cc3Cl)c2cc1OC [Example 1049, N-{3-Chloro-4-[(6,7-dimethoxy-4-quinolyl)oxy]phenyl}-[{[di(2-chloroethyl)amino]carbonyl}amino]methanethioamide]	44 nM	
COc1cc2nccc(Oc3cc(C)c(NC(=S)NC(=O)c4cc(C)oc4C)cc3C)c2cc1OC [Example 717, N-{4-[(6,7-Dimethoxy-4-quinolyl)oxy]-2,5-dimethylphenyl}-N′-[(2 5-dimethyl-3-furyl)carbonyl]thiourea]	> 100 nM	inhibition at 0.1 µM [2]: 8%
CCCC(CCC)OC(=O)N(CC)c1ccc(Oc2ncnc3cc(OC)c(OC)cc23)cc1Cl [Example 488, 1-Propylbutyl N-{2-chloro-4-[(6,7-dimethoxy-4-quinazolinyl)oxy]phenyl}-N-ethylcarbamate]	98 nM	

The next lines start with results.

IC50	Compound	further results
> 100 nM	COc1cc2nccc(Oc3ccc(NC(=S)NC(=O)c4ccc(C5CCCCC5)cc4)cc3Cl)c2cc1OC [Example 1127, N-{3-Chloro-4-[(6,7-dimethoxy-4-quinolyl)oxy]phenyl}-N′-(4-cyclohexylbenzoyl)thiourea]	inhibition at 0.1 µM [1]: 8%
92 nM	CCC(Oc1ccccc1)C(=O)NC(=S)Nc1ccc(Oc2ccnc3cc(OC)c(OC)cc23)c(Cl)c1 (centres unmarked) [Example 742, N-{3-Chloro-4-[(6,7-dimethoxy-4-quinolyl)oxy]phenyl}-N′-(2-phenoxybutanoyl)thiourea]	
< 10 nM	COc1cc2nccc(Oc3ccc(NC(=S)NC(=O)c4ccc(Br)cc4)cc3)c2cc1OC [Example 1166, N-(4-Bromobenzoyl)-N′-{4-[(6,7-dimethoxy-4-quinolyl)oxy]phenyl}thiourea]	
> 100 nM	COc1cc2nccc(Oc3ccc(NC(=S)NC(=O)c4cccc(F)c4)c(Cl)c3)c2cc1OC [Example 1163, N-{2-Chloro-4-[(6,7-dimethoxy-4-quinolyl)oxy]phenyl}-N′-(3-fluorobenzoyl)thiourea]	
49 nM	CCC(Oc1ccccc1)C(=O)NC(=S)Nc1ccc(Oc2ccnc3cc(OC)c(OC)cc23)cc1 (centres unmarked) [Example 741, N-{4-[(6,7-Dimethoxy-4-quinolyl)oxy]phenyl}-N′-(2-phenoxybutanoyl)thiourea]	
> 100 nM	COc1cc2nccc(Oc3ccc(NC(=S)NC(=O)c4cc(C)cc(C)c4)cc3)c2cc1OC [Example 1129, N-{4-[(6,7-Dimethoxy-4-quinolyl)oxy]phenyl}-N′-(3 5-dimethylbenzoyl)thiourea]	inhibition at 0.1 µM [1]: 48%
40 nM	COc1cc2nccc(Oc3ccc(NC(=S)NC(=O)[C@H](C)c4ccccc4)cc3Cl)c2cc1OC [Example 744, N-{3-Chloro-4-[(6,7-dimethoxy-4-quinolyl)oxy]phenyl}-N′-[(2R)-2-phenylpropanoyl]thiourea]	
56 nM	COc1cc2nccc(Oc3ccc(NC(=S)NC(=O)C4(c5ccccc5)CC4)cc3Cl)c2cc1OC [Example 1194, N-{3-Chloro-4-[(6,7-dimethoxy-4-quinolyl)oxy]phenyl}-N′-[(1-phenylcyclopropyl)carbonyl]thiourea]	
> 100 nM	COc1cc2nccc(Oc3ccc(NC(=S)NC(=O)C(OC)c4ccccc4)cc3Cl)c2cc1OC (centres unmarked) [Example 762, N-{3-Chloro-4-[(6,7-dimethoxy-4-quinolyl)oxy]phenyl}-N′-(2-methoxy-2-phenylacetyl)thiourea]	
